Read-outs that look alike come from different tables or passages of the source.
Key:
kinases (468) [1] = molecular target: kinases (468) (Homo sapiens, UniProt Q13153); conditions: PAK1; 1000 nM
kinases (468) [2] = molecular target: kinases (468) (Homo sapiens, UniProt Q8IVH8); conditions: MAP4K3; 1000 nM
kinases (468) [3] = molecular target: kinases (468) (Homo sapiens, UniProt P42685); conditions: FRK; 1000 nM
kinases (468) [4] = molecular target: kinases (468) (Homo sapiens, UniProt Q9HAZ1); conditions: CLK4; 1000 nM
kinases (468) [5] = molecular target: kinases (468) (Homo sapiens, UniProt Q9HC98); conditions: NEK6; 1000 nM
Chain of kinases (468) (Homo sapiens, UniProt Q9HC98) (Q9HC98 whole entry): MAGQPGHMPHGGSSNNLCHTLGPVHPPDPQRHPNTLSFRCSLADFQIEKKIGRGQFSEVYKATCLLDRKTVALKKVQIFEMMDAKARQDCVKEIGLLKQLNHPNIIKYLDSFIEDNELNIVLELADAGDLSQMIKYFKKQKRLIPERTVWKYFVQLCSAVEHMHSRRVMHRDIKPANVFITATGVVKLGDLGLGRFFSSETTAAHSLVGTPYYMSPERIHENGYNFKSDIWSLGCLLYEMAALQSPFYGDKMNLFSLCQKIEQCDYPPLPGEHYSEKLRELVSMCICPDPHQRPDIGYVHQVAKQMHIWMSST

kinases (468) [6] = molecular target: kinases (468) (Homo sapiens, UniProt Q8TDC3); conditions: BRSK1; 1000 nM
kinases (468) [7] = molecular target: kinases (468) (Homo sapiens, UniProt P28482); conditions: ERK2 (MAPK1); 1000 nM
Chain of kinases (468) (Homo sapiens, UniProt P28482) (P28482 whole entry): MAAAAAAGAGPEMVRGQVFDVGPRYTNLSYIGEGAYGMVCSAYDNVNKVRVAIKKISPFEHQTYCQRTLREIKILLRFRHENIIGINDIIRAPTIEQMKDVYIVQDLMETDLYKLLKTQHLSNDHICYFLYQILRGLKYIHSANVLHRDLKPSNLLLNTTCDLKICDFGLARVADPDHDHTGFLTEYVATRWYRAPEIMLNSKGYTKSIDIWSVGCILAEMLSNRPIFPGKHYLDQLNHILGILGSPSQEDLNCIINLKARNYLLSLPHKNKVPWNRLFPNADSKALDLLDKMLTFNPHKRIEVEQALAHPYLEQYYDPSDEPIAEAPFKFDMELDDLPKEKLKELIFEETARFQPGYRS

kinases (468) [8] = molecular target: kinases (468) (Homo sapiens, UniProt P78368); conditions: CSNK1G2; 1000 nM
kinases (468) [9] = molecular target: kinases (468) (Homo sapiens, UniProt O95382); conditions: ASK2 (MAP3K6); 1000 nM
kinases (468) [10] = molecular target: kinases (468) (Homo sapiens, UniProt Q9P286); conditions: PAK7; 1000 nM
kinases (468) [11] = molecular target: kinases (468) (Mycobacterium tuberculosis, UniProt P9WI81); conditions: PKNB(M.tuberculosis) (pknB); 1000 nM
kinases (468) [12] = molecular target: kinases (468) (Homo sapiens, UniProt Q9Y2K2); conditions: QSK (KIAA0999); 1000 nM
Chain of kinases (468) (Homo sapiens, UniProt Q9Y2K2) (Q9Y2K2 whole entry): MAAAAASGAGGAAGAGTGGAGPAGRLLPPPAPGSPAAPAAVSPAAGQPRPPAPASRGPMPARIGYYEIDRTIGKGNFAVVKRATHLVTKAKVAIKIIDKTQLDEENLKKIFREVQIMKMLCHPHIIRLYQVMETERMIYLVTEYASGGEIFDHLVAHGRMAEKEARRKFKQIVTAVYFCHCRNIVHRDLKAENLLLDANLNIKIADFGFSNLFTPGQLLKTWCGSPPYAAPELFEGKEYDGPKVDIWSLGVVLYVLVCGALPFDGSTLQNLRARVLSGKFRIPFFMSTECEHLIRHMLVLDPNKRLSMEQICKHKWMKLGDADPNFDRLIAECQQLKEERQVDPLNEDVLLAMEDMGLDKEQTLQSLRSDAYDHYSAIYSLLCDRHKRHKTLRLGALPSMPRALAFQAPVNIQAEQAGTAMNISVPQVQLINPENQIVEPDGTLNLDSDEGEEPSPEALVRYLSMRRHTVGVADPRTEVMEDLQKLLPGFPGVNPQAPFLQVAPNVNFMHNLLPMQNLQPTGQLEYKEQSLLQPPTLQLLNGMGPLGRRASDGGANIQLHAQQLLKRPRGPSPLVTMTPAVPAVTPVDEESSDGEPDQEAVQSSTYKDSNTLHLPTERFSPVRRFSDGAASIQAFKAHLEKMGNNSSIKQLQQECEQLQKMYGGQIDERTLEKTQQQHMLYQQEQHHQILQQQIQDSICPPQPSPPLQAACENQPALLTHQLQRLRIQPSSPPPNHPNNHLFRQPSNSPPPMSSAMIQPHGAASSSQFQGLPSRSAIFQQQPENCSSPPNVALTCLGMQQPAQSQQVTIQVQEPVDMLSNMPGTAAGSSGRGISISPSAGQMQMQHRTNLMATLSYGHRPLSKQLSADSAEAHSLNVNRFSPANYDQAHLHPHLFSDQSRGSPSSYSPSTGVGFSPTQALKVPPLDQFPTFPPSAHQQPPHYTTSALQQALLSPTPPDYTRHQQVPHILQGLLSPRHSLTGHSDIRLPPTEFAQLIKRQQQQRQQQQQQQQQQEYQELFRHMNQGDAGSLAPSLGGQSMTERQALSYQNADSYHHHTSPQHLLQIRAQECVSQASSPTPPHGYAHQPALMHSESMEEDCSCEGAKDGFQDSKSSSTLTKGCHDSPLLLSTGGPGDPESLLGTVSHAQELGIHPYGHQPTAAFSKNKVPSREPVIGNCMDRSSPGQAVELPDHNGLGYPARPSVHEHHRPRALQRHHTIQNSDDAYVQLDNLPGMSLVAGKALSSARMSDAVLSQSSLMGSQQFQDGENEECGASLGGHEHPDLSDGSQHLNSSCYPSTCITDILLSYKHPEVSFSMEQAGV

kinases (468) [13] = molecular target: kinases (468) (Homo sapiens, UniProt Q96GD4); conditions: AURKB; 1000 nM
kinases (468) [14] = molecular target: kinases (468) (Homo sapiens, UniProt P27037); conditions: ACVR2A; 1000 nM
Chain of kinases (468) (Homo sapiens, UniProt P27037) (P27037 20-513): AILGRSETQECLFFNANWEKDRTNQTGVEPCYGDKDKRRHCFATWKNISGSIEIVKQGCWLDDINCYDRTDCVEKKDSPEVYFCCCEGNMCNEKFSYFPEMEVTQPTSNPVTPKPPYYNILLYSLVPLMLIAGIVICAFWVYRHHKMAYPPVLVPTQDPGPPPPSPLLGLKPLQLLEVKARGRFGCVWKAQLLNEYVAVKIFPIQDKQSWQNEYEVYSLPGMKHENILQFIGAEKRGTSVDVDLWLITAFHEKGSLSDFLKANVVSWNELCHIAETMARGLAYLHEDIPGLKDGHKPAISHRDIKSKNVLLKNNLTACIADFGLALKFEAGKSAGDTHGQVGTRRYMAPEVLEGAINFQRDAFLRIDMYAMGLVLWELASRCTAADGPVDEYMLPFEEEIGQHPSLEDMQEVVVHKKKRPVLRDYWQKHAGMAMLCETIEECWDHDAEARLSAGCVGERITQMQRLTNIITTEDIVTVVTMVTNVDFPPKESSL

kinases (468) [15] = molecular target: kinases (468) (Homo sapiens, UniProt P15056); conditions: BRAF; 1000 nM
kinases (468) [16] = molecular target: kinases (468) (Homo sapiens, UniProt Q96RR4); conditions: CAMKK2; 1000 nM
kinases (468) [17] = molecular target: kinases (468) (Homo sapiens, UniProt Q15303); conditions: ERBB4; 1000 nM
kinases (468) [18] = molecular target: kinases (468) (Homo sapiens, UniProt P33981); conditions: kinase TTK (Entrez TTK); compound concentration 1000 nM
kinases (468) [19] = molecular target: kinases (468) (Homo sapiens, UniProt P29376); conditions: LTK; 1000 nM
kinases (468) [20] = molecular target: kinases (468) (Homo sapiens, UniProt Q9UPE1); conditions: kinase SRPK3 (Entrez SRPK3); compound concentration 1000 nM
kinases (468) [21] = molecular target: kinases (468) (Homo sapiens, UniProt Q9UQ88); conditions: CDC2L2; 1000 nM
kinases (468) [22] = molecular target: kinases (468) (Homo sapiens, UniProt P09769); conditions: FGR; 1000 nM
Chain of kinases (468) (Homo sapiens, UniProt P09769) (P09769 whole entry): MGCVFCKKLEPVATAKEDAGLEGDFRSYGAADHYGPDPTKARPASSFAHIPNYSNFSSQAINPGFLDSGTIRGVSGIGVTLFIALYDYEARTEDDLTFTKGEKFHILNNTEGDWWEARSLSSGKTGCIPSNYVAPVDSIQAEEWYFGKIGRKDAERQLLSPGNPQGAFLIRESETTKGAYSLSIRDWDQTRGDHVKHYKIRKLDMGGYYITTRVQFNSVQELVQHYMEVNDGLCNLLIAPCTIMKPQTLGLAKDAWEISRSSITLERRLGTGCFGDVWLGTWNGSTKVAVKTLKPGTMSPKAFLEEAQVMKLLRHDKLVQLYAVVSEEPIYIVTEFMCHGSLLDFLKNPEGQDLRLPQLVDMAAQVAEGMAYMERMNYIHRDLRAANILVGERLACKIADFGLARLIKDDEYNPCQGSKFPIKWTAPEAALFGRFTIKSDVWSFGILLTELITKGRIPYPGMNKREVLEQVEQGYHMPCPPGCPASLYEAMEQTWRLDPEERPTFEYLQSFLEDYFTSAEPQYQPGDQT

kinases (468) [23] = molecular target: kinases (468) (Homo sapiens, UniProt P06239); conditions: LCK; 1000 nM
kinases (468) [24] = molecular target: kinases (468) (Homo sapiens, UniProt Q8IY84); conditions: NIM1 (MGC42105); 1000 nM
Chain of kinases (468) (Homo sapiens, UniProt Q8IY84) (Q8IY84 whole entry): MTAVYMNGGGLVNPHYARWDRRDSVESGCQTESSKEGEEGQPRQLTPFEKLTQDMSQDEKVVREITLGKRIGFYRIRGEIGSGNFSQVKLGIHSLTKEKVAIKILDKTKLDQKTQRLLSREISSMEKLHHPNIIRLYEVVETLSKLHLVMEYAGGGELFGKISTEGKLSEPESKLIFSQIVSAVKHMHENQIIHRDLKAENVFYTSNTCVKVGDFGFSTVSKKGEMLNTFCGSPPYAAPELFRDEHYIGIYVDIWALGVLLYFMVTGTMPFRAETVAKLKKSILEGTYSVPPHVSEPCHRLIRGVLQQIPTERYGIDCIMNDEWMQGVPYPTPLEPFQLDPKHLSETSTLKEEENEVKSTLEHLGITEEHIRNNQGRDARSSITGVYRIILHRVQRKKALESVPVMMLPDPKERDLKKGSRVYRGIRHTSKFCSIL

kinases (468) [25] = molecular target: kinases (468) (Homo sapiens, UniProt Q8TDR2); conditions: kinase STK35 (Entrez STK35); compound concentration 1000 nM
kinases (468) [26] = molecular target: kinases (468) (Homo sapiens, UniProt Q16659); conditions: ERK3 (MAPK6); 1000 nM
kinases (468) [27] = molecular target: kinases (468) (Homo sapiens, UniProt Q86YV6); conditions: MYLK4; 1000 nM
kinases (468) [28] = molecular target: kinases (468) (Homo sapiens, UniProt O95835); conditions: LATS1; 1000 nM
kinases (468) [29] = molecular target: kinases (468) (Homo sapiens, UniProt O14757); conditions: CHEK1; 1000 nM
kinases (468) [30] = molecular target: kinases (468) (Homo sapiens, UniProt P31751); conditions: AKT2; 1000 nM
kinases (468) [31] = molecular target: kinases (468) (Homo sapiens, UniProt Q96PN8); conditions: kinase TSSK3 (Entrez TSSK3); compound concentration 1000 nM
Chain of kinases (468) (Homo sapiens, UniProt Q96PN8) (Q96PN8 whole entry): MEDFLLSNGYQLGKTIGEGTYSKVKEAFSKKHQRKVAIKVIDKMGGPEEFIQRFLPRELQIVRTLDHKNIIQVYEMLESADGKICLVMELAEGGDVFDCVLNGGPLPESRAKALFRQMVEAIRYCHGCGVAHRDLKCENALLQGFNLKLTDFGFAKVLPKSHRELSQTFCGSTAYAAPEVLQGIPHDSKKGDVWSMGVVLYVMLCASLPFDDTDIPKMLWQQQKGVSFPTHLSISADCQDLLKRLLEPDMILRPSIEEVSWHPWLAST

kinases (468) [32] = molecular target: kinases (468) (Homo sapiens, UniProt P00519, F317L); conditions: 1000 nM
Chain of kinases (468) (Homo sapiens, UniProt P00519, F317L) (P00519 whole entry F317L): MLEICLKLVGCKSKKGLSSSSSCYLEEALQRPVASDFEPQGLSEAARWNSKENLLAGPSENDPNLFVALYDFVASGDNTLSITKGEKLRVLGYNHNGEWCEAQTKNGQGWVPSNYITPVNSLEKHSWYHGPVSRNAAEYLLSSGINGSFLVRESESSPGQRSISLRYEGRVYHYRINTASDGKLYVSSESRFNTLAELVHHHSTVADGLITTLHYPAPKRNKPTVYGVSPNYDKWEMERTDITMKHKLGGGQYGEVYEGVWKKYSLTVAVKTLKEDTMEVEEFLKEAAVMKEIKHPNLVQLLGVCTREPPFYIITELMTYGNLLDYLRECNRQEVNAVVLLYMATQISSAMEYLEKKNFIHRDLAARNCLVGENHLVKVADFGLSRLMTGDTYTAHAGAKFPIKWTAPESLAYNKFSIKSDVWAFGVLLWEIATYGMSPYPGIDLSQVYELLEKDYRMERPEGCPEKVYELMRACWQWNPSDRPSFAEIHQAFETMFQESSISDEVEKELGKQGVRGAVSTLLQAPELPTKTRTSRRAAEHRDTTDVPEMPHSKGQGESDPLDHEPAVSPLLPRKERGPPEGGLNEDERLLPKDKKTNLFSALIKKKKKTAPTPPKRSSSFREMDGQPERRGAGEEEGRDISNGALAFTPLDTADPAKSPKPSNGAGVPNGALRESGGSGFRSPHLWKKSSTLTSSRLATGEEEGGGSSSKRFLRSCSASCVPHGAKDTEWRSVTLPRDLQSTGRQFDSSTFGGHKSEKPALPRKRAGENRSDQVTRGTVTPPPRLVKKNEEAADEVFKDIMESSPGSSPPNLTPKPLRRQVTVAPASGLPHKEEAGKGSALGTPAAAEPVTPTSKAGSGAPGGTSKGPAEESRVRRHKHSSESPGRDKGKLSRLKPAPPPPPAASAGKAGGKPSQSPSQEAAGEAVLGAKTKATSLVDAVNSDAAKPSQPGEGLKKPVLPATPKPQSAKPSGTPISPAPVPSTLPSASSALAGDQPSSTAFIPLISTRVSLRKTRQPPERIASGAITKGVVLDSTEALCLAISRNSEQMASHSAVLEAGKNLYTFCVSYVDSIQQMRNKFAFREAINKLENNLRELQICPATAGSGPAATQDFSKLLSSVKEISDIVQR

kinases (468) [33] = molecular target: kinases (468) (Homo sapiens, UniProt Q00535); conditions: CDK5; 1000 nM
kinases (468) [34] = molecular target: kinases (468) (Homo sapiens, UniProt Q13882); conditions: BRK (PTK6); 1000 nM
kinases (468) [35] = molecular target: kinases (468) (Homo sapiens, UniProt Q9HBY8); conditions: kinase SGK2 (Entrez SGK2); compound concentration 1000 nM

SMILES: C[C@H]1C[C@@H](O)CN(c2ncc(Cl)c(Nc3ccc4c(c3)c3c(c(=O)n4C)OCC(F)(F)[C@H](C4CC4)N3)n2)C1 [CCT373566_9A]
- Percent Control (kinases (468) [1]): 100%
- Percent Control (kinases (468) [2]): 100%
- Percent Control (kinases (468) [3]): 100%
- Percent Control (kinases (468) [4]): 91%
- Percent Control (kinases (468) [5]): 100%
- Percent Control (kinases (468) [6]): 96%
- Percent Control (kinases (468) [7]): 96%
- Percent Control (kinases (468) [8]): 99%
- Percent Control (kinases (468) [9]): 98%
- Percent Control (kinases (468) [10]): 96%
- Percent Control (kinases (468) [11]): 100%
- Percent Control (kinases (468) [12]): 90%
- Percent Control (kinases (468) [13]): 92%
- Percent Control (kinases (468) [14]): 82%
- Percent Control (kinases (468) [15]): 92%
- Percent Control (kinases (468) [16]): 88%
- Percent Control (kinases (468) [17]): 99%
- Percent Control (kinases (468) [18]): 91%
- Percent Control (kinases (468) [19]): 100%
- Percent Control (kinases (468) [20]): 90%
- Percent Control (kinases (468) [21]): 97%
- Percent Control (kinases (468) [22]): 100%
- Percent Control (kinases (468) [23]): 100%
- Percent Control (kinases (468) [24]): 90%
- Percent Control (kinases (468) [25]): 99%
- Percent Control (kinases (468) [26]): 100%
- Percent Control (kinases (468) [27]): 100%
- Percent Control (kinases (468) [28]): 94%
- Percent Control (kinases (468) [29]): 100%
- Percent Control (kinases (468) [30]): 100%
- Percent Control (kinases (468) [31]): 72%
- Percent Control (kinases (468) [32]; ABL1(F317L)-nonphosphorylated): 100%
- Percent Control (kinases (468) [32]; ABL1(F317L)-phosphorylated): 93%
- Percent Control (kinases (468) [33]): 97%
- Percent Control (kinases (468) [34]): 100%
- Percent Control (kinases (468) [35]): 86%

Source: publication PMC9234961 (Journal of Medicinal Chemistry, 2022)
